Experimental data from patent US12599672B2, “KRAS proteolysis targeting chimeras” (PAQ Therapeutics Inc., priority 2023, dated 2026).

Assays:
Format in all cases: cell-based
KRAS G12V = target: T1, KRAS G12V (Homo sapiens, UniProt P01116, G12V); experiment: KRAS G12V HiBit assay; conditions: SW620-KRAS (G12V)-HiBit-KI cells, compound treatment for 24 hours, class symbols
T1 construct: SW620-KRAS (G12V)-HiBit-KI cell (Pharmaron); host or cells: SW620-KRAS (G12V)-HiBit-KI cells (HiBiT knock-in at the endogenous KRAS locus)
T1 sequence (P01116 1-188 isoform P01116-2 G12V): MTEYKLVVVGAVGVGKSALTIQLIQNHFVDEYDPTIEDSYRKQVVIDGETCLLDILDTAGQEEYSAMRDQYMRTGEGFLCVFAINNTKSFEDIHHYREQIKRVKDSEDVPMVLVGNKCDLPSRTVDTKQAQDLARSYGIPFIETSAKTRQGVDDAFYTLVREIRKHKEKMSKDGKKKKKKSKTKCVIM
In short: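 Luminescence from lytic Nano-Glo HiBiT detection with LgBiT read KRAS G12V levels after 24 h compound exposure. Dilutions were 10-point, 3-fold, from a 0.3 mM DMSO stock. Degradation activity was normalised to cells given 0.1% DMSO alone.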

KRAS G12D = target: T2, KRAS G12D (Homo sapiens, UniProt P01116, G12D); experiment: KRAS G12D HiBit assay; conditions: AsPc-1-KRAS (G12D)-HiBit-KI cell, compound treatment for 24 hours; for DC50: absolute DC50
T2 construct: AsPc-1-KRAS (G12D)-HiBit-KI cell (Pharmaron); host or cells: AsPc-1-KRAS (G12D)-HiBit-KI cells (HiBiT knock-in at the endogenous KRAS locus)
T2 sequence (P01116 1-188 isoform P01116-2 G12D): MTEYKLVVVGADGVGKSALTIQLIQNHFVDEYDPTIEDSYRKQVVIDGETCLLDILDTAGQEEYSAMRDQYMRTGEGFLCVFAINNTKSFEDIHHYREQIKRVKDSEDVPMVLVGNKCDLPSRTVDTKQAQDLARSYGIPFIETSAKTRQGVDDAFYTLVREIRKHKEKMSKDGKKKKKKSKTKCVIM
In short: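 HiBiT luminescence, detected by adding lytic buffer, substrate and LgBiT protein, served as the KRAS G12D read-out. Compounds, serially diluted 3-fold over 10 points from 0.3 mM DMSO stock, were on cells for 24 h; percent inhibition normalized to cells given 0.1% DMSO only.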

KRAS = target: T3, KRAS (Homo sapiens, UniProt P01116); experiment: KRASamp MSD assay; conditions: KE39 (KRAS amplified) cells, treated with test compounds for 24 hr, MSD readout of KRAS degradation
T3 construct: endogenous in cells; host or cells: KE39 (KRAS amplified) cells
T3 sequence (P01116 1-188 isoform P01116-2): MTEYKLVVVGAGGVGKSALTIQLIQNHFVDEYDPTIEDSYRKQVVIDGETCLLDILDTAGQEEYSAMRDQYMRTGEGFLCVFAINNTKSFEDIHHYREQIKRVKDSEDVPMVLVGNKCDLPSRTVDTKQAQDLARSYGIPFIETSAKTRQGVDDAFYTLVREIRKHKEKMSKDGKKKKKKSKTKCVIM
In short: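 Degradation DC50 derived by curve fitting, with KRAS levels quantified by MSD electrochemiluminescence (capture/detection antibodies, recombinant WT KRAS standard). Lysates prepared from KE39 cells (KRAS amplified) exposed to test compounds for 24 hr.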

[1] = numeric bounds given in place of class symbols

CCc1c(F)ccc2cc(O)cc(-c3ncc4c(N5CCCC(C)(CO)C5)nc(OC[C@@]56CCCN5[C@H](COC(=O)N5CCC(CN7CCC(c8ccc9c(c8)n(C)c(=O)n9C8CCC(=O)NC8=O)CC7)CC5)CC6)nc4c3F)c12 (stereo partly drawn) [Compound 341, ((3S,7aS)-7a-(((7-(8-ethyl-7-fluoro-3-hydroxynaphthalen-1-yl)-8-fluoro-4-(3-(hydroxymethyl)-3-methylpiperidin-1-yl)pyrido[4,3-d]pyrimidin-2-yl)oxy)methyl)hexahydro-1H-pyrrolizin-3-yl)methyl 4-((4-(1-(2,6-dioxopiperidin-3-yl)-3-methyl-2-oxo-2,3-dihydro-1H-benzo[d]imidazol-5-yl)piperidin-1-yl)methyl)piperidine-1-carboxylate]
DC50 (KRAS G12V): > 100 nM | DC50 (KRAS G12D; [1]): > 100 nM | DC50 (KRAS): ≥ 10 nM

C#Cc1c(F)ccc2cc(O)cc(-c3ncc4c(N5CCC[C@@](C)(O)C5)nc(OCC5(CN6CCC(N7CCC(c8ccc9c(C%10CCC(=O)NC%10=O)nn(C)c9c8)CC7)CC6)CC5)nc4c3F)c12 (stereo partly shown) [Compound 58]
DC50 (KRAS G12V): < 10 nM | DC50 (KRAS G12D; class symbols): < 100 nM | DC50 (KRAS): ≥ 10 nM

C#Cc1c(F)ccc2cc(O)cc(-c3ncc4c(N5CCOCC5)nc(OC[C@@]56CCCN5[C@H](COC(=O)N5CCC(CN7CCC(c8ccc9c(c8)n(C)c(=O)n9C8CCC(=O)NC8=O)CC7)CC5)CC6)nc4c3F)c12 (stereo partly drawn) [Compound 125, ((3S,7aS)-7A-(((7-(8-Ethynyl-7-fluoro-3-hydroxynaphthalen-1-yl)-8-fluoro-4-morpholinopyrido[4,3-d]pyrimidin-2-yl)oxy)methyl)hexahydro-1H-pyrrolizin-3-yl)methyl 4-((4-(1-(2,6-dioxopiperidin-3-yl)-3-methyl-2-oxo-2,3-dihydro-1H-benzo[d]imidazol-5-yl)piperidin-1-yl)methyl) piperidine-1-carboxylate]
DC50 (KRAS G12V): < 10 nM | DC50 (KRAS G12D; class symbols): < 100 nM | Dmax (KRAS G12D; class symbols): > 50% | DC50 (KRAS): < 1 nM

CCc1c(F)ccc2cc(O)cc(-c3ncc4c(N5CC[C@H](O)C5)nc(OC[C@@]56CCCN5[C@H](COC(=O)N5CCC7(CC5)CC(N5CCC(c8ccc9c(c8)n(C)c(=O)n9C8CCC(=O)NC8=O)CC5)C7)CC6)nc4c3F)c12 (stereo partly drawn) [Compound 349, ((3S,7aS)-7a-(((7-(8-ethyl-7-fluoro-3-hydroxynaphthalen-1-yl)-8-fluoro-4-((S)-3-hydroxypyrrolidin-1-yl)pyrido[4,3-d]pyrimidin-2-yl)oxy)methyl)hexahydro-1H-pyrrolizin-3-yl)methyl 2-(4-(1-(2,6-dioxopiperidin-3-yl)-3-methyl-2-oxo-2,3-dihydro-1H-benzo[d]imidazol-5-yl)piperidin-1-yl)-7-azaspiro[3.5]nonane-7-carboxylate]
DC50 (KRAS G12V): 10 to 100 nM | DC50 (KRAS G12D; [1]): > 100 nM | DC50 (KRAS): 1 to 10 nM

C#Cc1c(F)ccc2cc(O)cc(-c3ncc4c(N5CCC[C@@](C)(O)C5)nc(OC[C@@]56CCCN5[C@H](COC(=O)N5CC7(CC(CN8CCC(c9ccc%10c(c9)n(C)c(=O)n%10C9CCC(=O)NC9=O)CC8)C7)C5)CC6)nc4c3F)c12 (stereo partly drawn) [Compound 418, ((3S,7aS)-7a-(((7-(8-ethynyl-7-fluoro-3-hydroxynaphthalen-1-yl)-8-fluoro-4-((R)-3-hydroxy-3-methylpiperidin-1-yl)pyrido[4,3-d]pyrimidin-2-yl)oxy)methyl)hexahydro-1H-pyrrolizin-3-yl)methyl 6-((4-(1-(2,6-dioxopiperidin-3-yl)-3-methyl-2-oxo-2,3-dihydro-1H-benzo[d]imidazol-5-yl)piperidin-1-yl)methyl)-2-azaspiro[3.3]heptane-2-carboxylate]
DC50 (KRAS G12V): < 10 nM | DC50 (KRAS G12D; class symbols): < 100 nM | DC50 (KRAS): 1 to 10 nM
